Here are results for ten compounds from patent US20200255478A1, “NOVEL COMPOUNDS ACTIVATING THE NRF2 PATHWAY” (Almirall, S.A., priority 2017, published 2020).

As usually defined, the IC50 is the concentration at which inhibition is half-maximal.

Starred links: 1 amine or outer side, 2 acyl side, 3 side chain; linkers in the order of their positions; H or OH if unused. Positions of bridges follow the written chain, without caps; N, C: chain ends. Residues, ends and D or L forms follow the SMILES beside them. *: point of attachment. oXylylene = c1ccc(C[*:2])c(C[*:1])c1; X6 = c1ccc2nc(C[*:2])c(C[*:1])nc2c1; Stearoyl = CCCCCCCCCCCCCCCCCC(=O)*; βAla = NCCC(=O)O Where only a bound is given, the exact number is not on record here.

Chain of Keap1-Maltose Binding Protein (MBP tag) (Q14145 whole entry): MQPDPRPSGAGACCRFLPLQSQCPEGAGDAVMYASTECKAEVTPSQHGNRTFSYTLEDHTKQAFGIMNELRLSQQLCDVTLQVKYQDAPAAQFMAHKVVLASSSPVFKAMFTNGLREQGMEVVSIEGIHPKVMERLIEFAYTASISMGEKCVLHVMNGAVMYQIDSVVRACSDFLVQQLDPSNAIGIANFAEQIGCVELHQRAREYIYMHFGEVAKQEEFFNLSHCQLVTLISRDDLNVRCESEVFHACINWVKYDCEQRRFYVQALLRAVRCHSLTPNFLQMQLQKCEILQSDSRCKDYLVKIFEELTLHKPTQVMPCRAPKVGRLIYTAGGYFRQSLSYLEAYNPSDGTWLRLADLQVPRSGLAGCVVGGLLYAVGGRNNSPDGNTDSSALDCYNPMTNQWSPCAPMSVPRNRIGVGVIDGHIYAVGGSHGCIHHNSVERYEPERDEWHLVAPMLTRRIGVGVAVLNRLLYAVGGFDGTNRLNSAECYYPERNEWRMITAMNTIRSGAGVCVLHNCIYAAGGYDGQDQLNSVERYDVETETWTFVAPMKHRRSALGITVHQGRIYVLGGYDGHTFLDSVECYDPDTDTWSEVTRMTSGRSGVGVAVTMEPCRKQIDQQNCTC

One experiment has as its target Keap1-Maltose Binding Protein (MBP tag) (Homo sapiens, UniProt Q14145). Briefly: Nrf2-Keap1 HTRF (TR-FRET) binding assay: displacement of biotinylated ETGE peptide from Keap1-MBP.
Conditions: not given
On to `CC(C)C[C@H](NC(=O)[C@@H]1CSCc2c(F)c(F)c(F)c(F)c2CSC[C@H](NC(=O)[C@H](CCC(N)=O)NC(=O)[C@@H](N)CC(C)C)C(=O)N[C@@H](CC(=O)O)C(=O)N2CCC[C@H]2C(=O)N[C@@H](CCC(=O)O)C(=O)N[C@@H]([C@@H](C)O)C(=O)NCC(=O)N[C@@H](CCC(=O)O)C(=O)N1)C(=O)N1CCC[C@H]1C(=O)NCCC(=O)N[C@@H](CCCNC(=N)N)C(=O)N[C@@H](CCCCN)C(=O)N[C@@H](CCCCN)C(=O)N[C@@H](CCCNC(=N)N)C(=O)N[C@@H](CCCNC(=N)N)C(=O)N[C@@H](CCC(N)=O)C(=O)N[C@@H](CCCNC(=N)N)C(=O)N[C@@H](CCCNC(=N)N)C(=O)N[C@@H](CCCNC(=N)N)C(N)=O` [Example 56], for which the IC50 is less than 1 nM.

The same experiment, now with this note: HTRF (TR-FRET); displacement of ETGE-biotin from Keap1-MBP; values banded into grades; read-out: Binding (IC50) ETGE-Keap1.
With `CCCCCCCCCCCCCCCCCC(=O)NCCC(=O)N[C@@H](CCCCN)C(=O)N[C@@H](CCC(N)=O)C(=O)N[C@H]1CSCc2ccccc2CSC[C@@H](C(=O)N[C@@H](CC(C)C)C(=O)N2CCC[C@H]2C(N)=O)NC(=O)[C@H](CCC(=O)O)NC(=O)CNC(=O)[C@H]([C@@H](C)O)NC(=O)[C@H](CCC(=O)O)NC(=O)[C@@H]2CCCN2C(=O)[C@H](CC(=O)O)NC1=O` [Example 47, {[Stearyl-βAla-Lys-Gln-Cys(&^1)-Asp-Pro-Glu-Thr-Gly-Glu-Cys(&^2)-Leu-Pro-NH2][&^1(1,2-phenylenediyl)dimethylene&^2]}], the IC50 is less than 1 nM.
Same read-out and setting: under `CCCCCCCCCCCCCCCCCC(=O)NCCC(=O)N[C@@H](CC(C)C)C(=O)N[C@@H](CCC(N)=O)C(=O)N[C@H]1CSCc2ccccc2CSC[C@@H](C(=O)N[C@@H](CC(C)C)C(=O)N2CCC[C@H]2C(N)=O)NC(=O)[C@H](CCC(=O)O)NC(=O)CNC(=O)[C@H]([C@@H](C)O)NC(=O)[C@H](CCC(=O)O)NC(=O)[C@@H]2CCCN2C(=O)[C@H](CC(=O)O)NC1=O` [Example 48, {[Stearyl-βAla-Leu-Gln-Cys(&^1)-Asp-Pro-Glu-Thr-Gly-Glu-Cys(&^2)-Leu-Pro-NH2][&^1(1,2-phenylenediyl)dimethylene&^2]}] ({Stearoyl-βAla}-LQCDPETGECLP-NH2; linker 3-10 via oXylylene) stands 1 to 100 nM.
Regarding `CCCCCCCCCCCCCCCCCC(=O)NCCC(=O)N[C@H](C(=O)N[C@H](C(=O)N[C@H]1CSCc2ccccc2CSC[C@@H](C(=O)N[C@H](C(=O)N[C@H](C(N)=O)C(C)C)C(C)C)NC(=O)[C@H](CCC(=O)O)NC(=O)CNC(=O)[C@H]([C@@H](C)O)NC(=O)[C@H](CCC(=O)O)NC(=O)[C@@H]2CCCN2C(=O)[C@H](CC(=O)O)NC1=O)C(C)C)C(C)C` [Example 52, {[Stearyl-βAla-Val-Val-Cys(&^1)-Asp-Pro-Glu-Thr-Gly-Glu-Cys(&^2)-Val-Val-NH2][&^1(1,2-phenylenediyl)dimethylene&^2]}] ({Stearoyl-βAla}-VVCDPETGECVV-NH2; linker 3-10 via oXylylene), the IC50 lay within 1 to 100 nM.
For the compound `CCCCCCCCCCCCCCCCCC(=O)NCCC(=O)N[C@@H](CCCCN)C(=O)N[C@@H](CCCCN)C(=O)N[C@H]1CSCc2ccccc2CSC[C@@H](C(=O)N[C@@H](CCCCN)C(=O)N[C@@H](CCCCN)C(N)=O)NC(=O)[C@H](CCC(=O)O)NC(=O)CNC(=O)[C@H]([C@@H](C)O)NC(=O)[C@H](CCC(=O)O)NC(=O)[C@@H]2CCCN2C(=O)[C@H](CC(=O)O)NC1=O` [Example 53, {[Stearyl-βAla-Lys-Lys-Cys(&^1)-Asp-Pro-Glu-Thr-Gly-Glu-Cys(&^2)-Lys-Lys-NH2][&^1(1,2-phenylenediyl)dimethylene&^2]}] ({Stearoyl-βAla}-KKCDPETGECKK-NH2; linker 3-10 via oXylylene), the IC50 fell in the range of 1 to 100 nM.
On the same count and under the same terms, under `CCCCCCCCCCCCCCCCCC(=O)NCCC(=O)N[C@@H](CCCCN)C(=O)N[C@@H](CCCCN)C(=O)N[C@H]1CSCc2ccccc2CSC[C@@H](C(=O)N[C@@H](CC(C)C)C(=O)N2CCC[C@H]2C(N)=O)NC(=O)[C@H](CCC(=O)O)NC(=O)CNC(=O)[C@H]([C@@H](C)O)NC(=O)[C@H](CCC(=O)O)NC(=O)[C@@H]2CCCN2C(=O)[C@H](CC(=O)O)NC1=O` [Example 57, {[Stearyl-βAla-Lys-Lys-Cys(&^1)-Asp-Pro-Glu-Thr-Gly-Glu-Cys(&^2)-Leu-Pro-NH2][&^1(1,2-phenylenediyl)dimethylene&^2]}] ({Stearoyl-βAla}-KKCDPETGECLP-NH2; linker 3-10 via oXylylene) stands less than 1 nM; under `CC(C)C[C@H](NC(=O)[C@H](CC(C)C)NC(=O)[C@@H]1CSCc2cc3ccccc3cc2CSC[C@H](NC(=O)[C@H](CC(C)C)NC(=O)[C@@H](N)CC(C)C)C(=O)N[C@@H](CC(=O)O)C(=O)N2CCC[C@H]2C(=O)N[C@@H](CCC(=O)O)C(=O)N[C@@H]([C@@H](C)O)C(=O)NCC(=O)N[C@@H](CCC(=O)O)C(=O)N1)C(=O)NCCC(=O)N[C@@H](CCCNC(=N)N)C(=O)N[C@@H](CCCCN)C(=O)N[C@@H](CCCCN)C(=O)N[C@@H](CCCNC(=N)N)C(=O)N[C@@H](CCCNC(=N)N)C(=O)N[C@@H](CCC(N)=O)C(=O)N[C@@H](CCCNC(=N)N)C(=O)N[C@@H](CCCNC(=N)N)C(=O)N[C@@H](CCCNC(=N)N)C(N)=O` [Example 58], less than 1 nM; under `Cc1cc(C)c2c(C)c1CSC[C@@H](C(=O)N[C@@H](CC(C)C)C(=O)N[C@@H](CC(C)C)C(=O)NCCC(=O)N[C@@H](CCCNC(=N)N)C(=O)N[C@@H](CCCCN)C(=O)N[C@@H](CCCCN)C(=O)N[C@@H](CCCNC(=N)N)C(=O)N[C@@H](CCCNC(=N)N)C(=O)N[C@@H](CCC(N)=O)C(=O)N[C@@H](CCCNC(=N)N)C(=O)N[C@@H](CCCNC(=N)N)C(=O)N[C@@H](CCCNC(=N)N)C(N)=O)NC(=O)[C@H](CCC(=O)O)NC(=O)CNC(=O)[C@H]([C@@H](C)O)NC(=O)[C@H](CCC(=O)O)NC(=O)[C@@H]1CCCN1C(=O)[C@H](CC(=O)O)NC(=O)[C@@H](NC(=O)[C@H](CC(C)C)NC(=O)[C@@H](N)CC(C)C)CSC2` [Example 59], less than 1 nM.
Same read-out and setting: under `CC(C)C[C@H](NC(=O)[C@H](CC(C)C)NC(=O)[C@@H]1CSCc2ccccc2CSC[C@H](NC(=O)[C@H](CC(C)C)NC(=O)[C@@H](N)CC(C)C)C(=O)N[C@@H](CC(=O)O)C(=O)N2CCC[C@H]2C(=O)N[C@@H](CCC(=O)O)C(=O)N[C@@H]([C@@H](C)O)C(=O)NCC(=O)N[C@@H](CCC(=O)O)C(=O)N1)C(=O)NCCC(=O)N[C@@H](CCCNC(=N)N)C(=O)N[C@@H](CCCCN)C(=O)N[C@@H](CCCCN)C(=O)N[C@@H](CCCNC(=N)N)C(=O)N[C@@H](CCCNC(=N)N)C(=O)N[C@@H](CCC(N)=O)C(=O)N[C@@H](CCCNC(=N)N)C(=O)N[C@@H](CCCNC(=N)N)C(=O)N[C@@H](CCCNC(=N)N)C(N)=O` [Example 60] stands less than 1 nM; under `CCCCCCCCCCCCCCCCCC(=O)NCCC(=O)N[C@@H](CC(C)C)C(=O)N[C@@H](CCC(N)=O)C(=O)N[C@H]1CSCc2nc3ccccc3nc2CSC[C@@H](C(=O)N[C@@H](CC(C)C)C(=O)N2CCC[C@H]2C(N)=O)NC(=O)[C@H](CCC(=O)O)NC(=O)CNC(=O)[C@H]([C@@H](C)O)NC(=O)[C@H](CCC(=O)O)NC(=O)[C@@H]2CCCN2C(=O)[C@H](CC(=O)O)NC1=O` [Example 61, {[Stearyl-βAla-Leu-Gln-Cys(&^1)-Asp-Pro-Glu-Thr-Gly-Glu-Cys(&^2)-Leu-Pro-NH2][&^1(quinoxaline)2,3-diyldimethylene&^2]}] ({Stearoyl-βAla}-LQCDPETGECLP-NH2; linker 3-10 via X6), 1 to 100 nM.
